Laboratory results: patent publication US10787450B2 (BRISTOL-MYERS SQUIBB COMPANY, priority 2016, dated 2020)
Like-named read-outs stand apart in the source and are kept apart here.

Tests used:
[1] = system: IL-1 beta-induced coronary stenosis; conditions: long term treatment; cited from earlier work
rat stroke model = conditions: in vivo; cited from earlier work
[2] = system: congestive heart failure in Dahl salt-sensitive rats; conditions: rat, in vivo; cited from earlier work
[3] = system: spontaneously hypertensive rat, renal hypertensive rat and deoxycortisone acetate salt hypertensive rat models; conditions: cited from earlier work
neointimal formation = conditions: rats; cited from earlier work
ROCK2 = ROCK2 (Homo sapiens (Human), UniProt O75116); assay: ROCK2 kinase inhibition assay (FITC peptide substrate, LABCHIP 3000 Reader); type: biochemical; conditions: 5 μM ATP, 1.5 μM peptide substrate
Outline: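 Reaction in 20 mM HEPES pH 7.5, 20 mM MgCl2, 0.015% Brij-35, 4 mM DTT with 5 μM ATP and 1.5 μM FITC-AHA-AKRRRLSSLRA-OH peptide, started with Rho kinase, DMSO <2%. EDTA-stopped; phospho and non-phospho peptide separated by mobility shift. IC50 from dose-response curve fit.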

Sequence of ROCK2 (O75116 whole entry, species assumed): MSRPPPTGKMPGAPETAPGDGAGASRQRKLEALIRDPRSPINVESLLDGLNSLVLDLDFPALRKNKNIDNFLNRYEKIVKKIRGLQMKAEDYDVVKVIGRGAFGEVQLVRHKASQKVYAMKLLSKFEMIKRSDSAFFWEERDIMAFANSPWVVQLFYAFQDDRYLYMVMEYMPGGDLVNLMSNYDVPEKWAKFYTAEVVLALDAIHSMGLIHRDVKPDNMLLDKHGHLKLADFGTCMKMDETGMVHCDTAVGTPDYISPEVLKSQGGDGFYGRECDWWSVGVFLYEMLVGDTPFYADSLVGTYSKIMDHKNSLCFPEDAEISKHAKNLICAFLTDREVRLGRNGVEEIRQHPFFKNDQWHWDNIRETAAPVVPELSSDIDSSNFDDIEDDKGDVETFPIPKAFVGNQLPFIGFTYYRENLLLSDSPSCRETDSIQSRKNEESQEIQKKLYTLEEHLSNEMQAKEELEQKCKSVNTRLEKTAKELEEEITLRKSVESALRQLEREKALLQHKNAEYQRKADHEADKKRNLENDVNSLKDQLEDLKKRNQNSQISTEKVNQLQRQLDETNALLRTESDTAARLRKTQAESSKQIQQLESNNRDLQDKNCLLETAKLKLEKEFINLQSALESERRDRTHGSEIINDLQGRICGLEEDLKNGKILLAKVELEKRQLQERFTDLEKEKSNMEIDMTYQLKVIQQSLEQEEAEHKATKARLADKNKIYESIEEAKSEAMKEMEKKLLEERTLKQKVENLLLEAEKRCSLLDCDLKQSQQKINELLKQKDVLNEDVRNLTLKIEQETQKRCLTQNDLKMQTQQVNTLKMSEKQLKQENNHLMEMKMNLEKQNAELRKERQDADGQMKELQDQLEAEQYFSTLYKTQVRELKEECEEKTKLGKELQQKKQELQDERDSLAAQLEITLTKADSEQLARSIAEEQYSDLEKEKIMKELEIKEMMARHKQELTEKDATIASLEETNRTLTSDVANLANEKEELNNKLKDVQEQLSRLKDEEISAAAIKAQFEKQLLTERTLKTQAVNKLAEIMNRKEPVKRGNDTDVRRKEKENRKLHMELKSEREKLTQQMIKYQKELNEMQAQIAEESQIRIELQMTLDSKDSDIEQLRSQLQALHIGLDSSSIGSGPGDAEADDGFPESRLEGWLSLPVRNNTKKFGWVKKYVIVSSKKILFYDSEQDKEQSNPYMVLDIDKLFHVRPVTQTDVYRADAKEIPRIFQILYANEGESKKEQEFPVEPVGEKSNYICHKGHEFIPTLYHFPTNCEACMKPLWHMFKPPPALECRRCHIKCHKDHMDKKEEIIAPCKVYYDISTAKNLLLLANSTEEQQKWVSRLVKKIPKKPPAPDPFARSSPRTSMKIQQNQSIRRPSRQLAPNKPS

IC50 (ROCK2)	SMILES	further results
	O=S(=O)(c1cccc2cnccc12)N1CCCNCC1 [fasudil]	coronary constrictive remodeling [1]: promote a regression of coronary constrictive remodeling; coronary stenosis [1]: progressively reduce coronary stenosis; infarct size and neurologic deficit (rat stroke model): reduce both the infarct size and neurologic deficit
	C[C@@H](N)[C@H]1CC[C@H](C(=O)Nc2ccncc2)CC1 [Example Y-27632, Y-27632]	ventricular hypertrophy, fibrosis and function [2]: improve ventricular hypertrophy, fibrosis and function; effect on blood pressure ([3]; control rats): only a minor effect on blood pressure; effect on blood pressure ([3]; three rat models of hypertension): significantly decrease blood pressure; neointimal formation (neointimal formation): inhibited neointimal formation
< 3 nM	CCc1nc(N2CC3(CCN(CCO)CC3)N(Cc3cc(F)cc(OC)c3)C2=O)ccc1-c1cn[nH]c1 [Example 153, 3-(6-ethyl-5-(1H-pyrazol-4-yl)pyridin-2-yl)-1-(3-fluoro-5-methoxybenzyl)-8-(2-hydroxyethyl)-1,3,8-triazaspiro[4.5]decan-2-one]	
< 3 nM	COc1cccc(CN2C(=O)N(c3ccc(-c4cn[nH]c4)cc3)CC23CCN(C(=O)C2CCC(F)(F)C2)CC3)c1 (stereo not drawn) [Example 175, 3-(4-(1H-pyrazol-4-yl)phenyl)-8-(3,3-difluorocyclopentane-carbonyl)-1-(3-methoxybenzyl)-1,3,8-triazaspiro[4.5]decan-2-one]	
< 3 nM	COc1cccc(CN2C(=O)N(c3ccc(-c4cn[nH]c4)cc3)CC23CCN(CC2CCC2)CC3)c1 [Example 232, 3-(4-(1H-pyrazol-4-yl)phenyl)-8-(cyclobutyl-methyl)-1-(3-methoxy-benzyl)-1,3,8-triazaspiro [4.5]decan-2-one]	
< 3 nM	COCC(=O)N1CCC2(CC1)CN(c1ccc(-c3cn[nH]c3)c(OC)n1)C(=O)N2Cc1cccc(F)c1C [Example 226, 1-(3-fluoro-2-methylbenzyl)-3-(6-methoxy-5-(1H-pyrazol-4-yl)pyridin-2-yl)-8-(2-methoxyacetyl)-1,3,8-triazaspiro[4.5]decan-2-one]	
< 3 nM	CCC(CC)CN1CCC2(CC1)CN(c1ccc(-c3cn[nH]c3)cc1)C(=O)N2Cc1cccc(OC)c1 [Example 123, 3-(4-(1H-pyrazol-4-yl)phenyl)-8-(2-ethylbutyl)-1-(3-methoxybenzyl)-1,3,8-triazaspiro[4.5]decan-2-one]	
< 3 nM	COc1cccc(CN2C(=O)N(c3ccc(-c4cn[nH]c4)cc3)CC23CCN(CC2CCC(F)(F)CC2)CC3)c1 [Example 231, 3-(4-(1H-pyrazol-4-yl)phenyl)-8-((4,4-difluorocyclohexyl)methyl)-1-(3-methoxybenzyl)-1,3,8-triazaspiro[4.5]decan-2-one]	
< 3 nM	COc1cccc(CN2C(=O)N(c3ccc(-c4cn[nH]c4)cc3)CC23CCN(C(=O)[C@@H](C)O)CC3)c1 [Example 178, (R)-3-(4-(1H-pyrazol-4-yl)phenyl)-8-(2-hydroxypropanoyl)-1-(3-methoxybenzyl)-1,3,8-triazaspiro[4.5]decan-2-one]	
30 to 250 nM	COc1cccc(CN2C(=O)N(c3ncc(-c4cn[nH]c4)c(OC)n3)CC23CCN(C(=O)C(C)(C)CO)CC3)c1 [Example 211, 8-(3-hydroxy-2,2-dimethylpropanoyl)-3-(4-methoxy-5-(1H-pyrazol-4-yl)pyrimidin-2-yl)-1-(3-methoxybenzyl)-1,3,8-triazaspiro[4.5] decan-2-one]	
< 3 nM	CCc1nc(N2CC3(CCN(C(=O)CN(C)C)CC3)N(Cc3cccc(OC)c3)C2=O)ccc1-c1cn[nH]c1 [Example 203, 8-(2-(dimethylamino)acetyl)-3-(6-ethyl-5-(1H-pyrazol-4-yl)pyridin-2-yl)-1-(3-methoxybenzyl)-1,3,8-triazaspiro[4.5]decan-2-one]	
3 to 30 nM	O=C1N(c2ccc(-c3cn[nH]c3)cc2)CC2(CCOCC2)N1Cc1cccc(Cl)c1 [Example 16, 3-(4-(1H-pyrazol-4-yl)phenyl)-1-(3-chlorobenzyl)-8-oxa-1,3-diazaspiro[4.5]decan-2-one]	
< 3 nM	CNC(=O)N1CCC2(CC1)CN(c1ccc(-c3cn[nH]c3)cc1)C(=O)N2Cc1cccc(OC)c1 [Example 91, 3-(4-(1H-pyrazol-4-yl)phenyl)-1-(3-methoxybenzyl)-N-methyl-2-oxo-1,3,8-triazaspiro[4.5]decane-8-carboxamide]	
3 to 30 nM	CCc1nc(N2CC3(CCN(CCC(F)(F)F)CC3)N(Cc3cccc(OC)c3)C2=O)ccc1-c1cn[nH]c1 [Example 127, 3-(6-ethyl-5-(1H-pyrazol-4-yl)pyridin-2-yl)-1-(3-methoxybenzyl)-8-(3,3,3-trifluoropropyl)-1,3,8-triazaspiro[4.5]decan-2-one]	
< 3 nM	COc1cc(F)cc(CN2C(=O)N(c3ccc(-c4cn[nH]c4)cc3)CC23CCN(C2COC2)CC3)c1 [Example 236, 3-(4-(1H-pyrazol-4-yl)phenyl)-1-(3-fluoro-5-methoxy-benzyl)-8-(oxetan-3-yl)-1,3,8-triazaspiro [4.5]decan-2-one]	
< 3 nM	CCc1nc(N2CC3(CCN(C(C)=O)CC3)N(Cc3cccc(OC)c3)C2=O)ccc1-c1cn[nH]c1 [Example 88, 8-acetyl-3-(6-ethyl-5-(1H-pyrazol-4-yl)pyridin-2-yl)-1-(3-methoxybenzyl)-1,3,8-triazaspiro[4.5]decan-2-one]	
